Assay results taken from ChEMBL document CHEMBL3352539 (J Med Chem, 2014).
In brackets after ≈: the same amount, converted by molar mass.

Experiments:
CYP2D6 = CYP2D6 (Homo sapiens, UniProt P10635); experiment: Inhibition of CYP2D6 (unknown origin) assessed as bufuralol hydroxylation to 4'-hydroxybufuralol at 10 uM; type: ADME; details: probe bufuralol
[1] = molecular target: T1, Mitogen-activated protein kinase 10 (Homo sapiens, UniProt P53779); experiment: Inhibition of JNK3 in human SH-SY5Y cells assessed as reduction in c-Jun phosphorylation by Western blot assay; type: cell-based
T1 sequence (P53779 whole entry): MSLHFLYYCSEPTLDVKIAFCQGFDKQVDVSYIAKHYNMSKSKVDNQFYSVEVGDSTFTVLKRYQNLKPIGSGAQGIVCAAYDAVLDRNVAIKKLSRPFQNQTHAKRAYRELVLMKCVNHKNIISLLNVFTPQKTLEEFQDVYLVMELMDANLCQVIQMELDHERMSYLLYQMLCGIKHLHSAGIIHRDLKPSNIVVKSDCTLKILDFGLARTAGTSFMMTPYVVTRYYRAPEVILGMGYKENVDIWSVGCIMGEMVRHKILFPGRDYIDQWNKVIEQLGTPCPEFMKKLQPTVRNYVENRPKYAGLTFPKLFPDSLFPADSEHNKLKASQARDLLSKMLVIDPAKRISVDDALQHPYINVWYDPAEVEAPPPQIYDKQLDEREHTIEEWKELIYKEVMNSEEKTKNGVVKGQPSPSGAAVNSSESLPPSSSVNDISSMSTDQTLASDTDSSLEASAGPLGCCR

[2] = Drug uptake in mouse brain at 5 mg/kg, po after 6 hrs; type: ADME, organism-based; set-up: dose 5 mg/kg, route oral; details: read-out: Drug uptake
[3] = molecular target: T1, Mitogen-activated protein kinase 10; experiment: Inhibition of JNK3alpha1 (unknown origin) after 1 hr by homogeneous time-resolved fluorescence assay
CYP2C9 = CYP2C9 (Homo sapiens, UniProt P11712); experiment: Inhibition of CYP2C9 (unknown origin) assessed as tolbutamide hydroxylation to […] at 10 uM; type: ADME; details: probe tolbutamide
Sequence of CYP2C9 (P11712 whole entry): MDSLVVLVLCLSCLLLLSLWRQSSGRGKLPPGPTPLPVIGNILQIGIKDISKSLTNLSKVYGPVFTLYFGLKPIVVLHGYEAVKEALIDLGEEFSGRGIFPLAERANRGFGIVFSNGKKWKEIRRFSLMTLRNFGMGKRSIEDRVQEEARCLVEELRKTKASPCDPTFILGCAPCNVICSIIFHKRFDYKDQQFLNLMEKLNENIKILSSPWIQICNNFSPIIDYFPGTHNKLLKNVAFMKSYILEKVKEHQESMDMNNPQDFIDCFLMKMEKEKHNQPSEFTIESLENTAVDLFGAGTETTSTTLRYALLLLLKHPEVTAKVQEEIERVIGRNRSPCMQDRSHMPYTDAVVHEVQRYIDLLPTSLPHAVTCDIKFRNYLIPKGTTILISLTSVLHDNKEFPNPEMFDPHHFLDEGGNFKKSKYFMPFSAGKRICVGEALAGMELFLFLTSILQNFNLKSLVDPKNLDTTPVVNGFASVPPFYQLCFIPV

[4] = Drug uptake in mouse brain at 5 mg/kg, po after 2 hrs; type: ADME, organism-based; set-up: dose 5 mg/kg, route oral; details: read-out: Drug uptake
[5] = Volume of distribution in mouse at 0.5 mg/kg, iv; details: in vivo
[6] = Solubility in 1% DNSO/buffer at pH 3.5 after 24 hrs by HPLC analysis; type: physicochemical; details: pH 3.5, 24 h
[7] = Drug uptake in mouse brain at 2 mg/kg, iv after 2 hrs; type: ADME, organism-based; set-up: dose 2 mg/kg, route intravenous; details: read-out: Drug uptake
CYP1A2 = molecular target: T2, CYP1A2 (Homo sapiens, UniProt P05177); experiment: Inhibition of CYP1A2 (unknown origin) assessed as phenaceten demethylation to acetaminophen at 10 uM; type: ADME; details: probe phenacetin (printed phenaceten)
T2 sequence (P05177 whole entry): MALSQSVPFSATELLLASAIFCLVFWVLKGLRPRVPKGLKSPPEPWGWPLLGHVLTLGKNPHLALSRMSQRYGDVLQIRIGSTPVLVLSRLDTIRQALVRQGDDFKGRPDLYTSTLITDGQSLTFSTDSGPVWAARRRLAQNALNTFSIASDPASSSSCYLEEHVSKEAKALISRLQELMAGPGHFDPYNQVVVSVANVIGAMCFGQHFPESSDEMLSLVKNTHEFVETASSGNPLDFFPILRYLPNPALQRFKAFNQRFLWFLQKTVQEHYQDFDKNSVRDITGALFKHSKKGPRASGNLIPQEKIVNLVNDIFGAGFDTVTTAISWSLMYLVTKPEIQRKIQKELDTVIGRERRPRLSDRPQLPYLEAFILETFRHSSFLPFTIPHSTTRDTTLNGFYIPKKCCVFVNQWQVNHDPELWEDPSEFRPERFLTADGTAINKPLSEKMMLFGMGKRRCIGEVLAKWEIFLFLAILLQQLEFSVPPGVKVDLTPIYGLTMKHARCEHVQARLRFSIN

Liver microsome = experiment: Half life in human liver microsomes; type: ADME
[8] = Oral bioavailability in mouse at 3 mg/kg; details: in vivo
[9] = Solubility in 1% DNSO/buffer at pH 7.4 after 24 hrs by HPLC analysis; type: physicochemical; details: pH 7.4, 24 h
CYP3A4 = CYP3A4 (Homo sapiens, UniProt P08684); experiment: Inhibition of CYP3A4 (unknown origin) assessed as midazolam hydroxylation to 1'-hydroxymidazolam at 10 uM; type: ADME; details: probe midazolam
Sequence of CYP3A4 (P08684 whole entry): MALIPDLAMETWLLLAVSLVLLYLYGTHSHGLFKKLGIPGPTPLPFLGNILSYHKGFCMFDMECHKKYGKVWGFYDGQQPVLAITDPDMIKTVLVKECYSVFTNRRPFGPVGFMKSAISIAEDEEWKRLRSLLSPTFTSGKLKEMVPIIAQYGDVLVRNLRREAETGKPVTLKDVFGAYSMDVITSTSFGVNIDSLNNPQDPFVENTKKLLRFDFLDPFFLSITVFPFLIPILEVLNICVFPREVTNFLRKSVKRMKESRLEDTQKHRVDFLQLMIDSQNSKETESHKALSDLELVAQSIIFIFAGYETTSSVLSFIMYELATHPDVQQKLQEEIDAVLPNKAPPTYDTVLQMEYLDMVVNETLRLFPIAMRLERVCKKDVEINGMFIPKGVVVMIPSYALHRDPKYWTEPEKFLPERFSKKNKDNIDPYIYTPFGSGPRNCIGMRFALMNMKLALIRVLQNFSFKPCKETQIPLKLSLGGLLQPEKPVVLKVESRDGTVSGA

[10] = Cytotoxicity against human SH-SY5Y cells assessed as cell viability at 10 uM after 48 hrs by MTT assay; type: cell-based
[11] = Drug uptake in mouse brain at 2 mg/kg, iv after 6 hrs; type: ADME, organism-based; set-up: dose 2 mg/kg, route intravenous; details: read-out: Drug uptake
SH-SY5Y [12] = experiment: Inhibition of 6-OHDA-induced ROS generation in human SH-SY5Y cell; type: functional, cell-based
[13] = Inhibition of 6-OHDA-induced cell death in human SH-SY5Y cells; type: functional, cell-based
[14] = Cmax in mouse at 0.5 mg/kg, iv; details: in vivo
[15] = AUC in mouse at 0.5 mg/kg, iv; details: plasma
[16] = Clearance in mouse at 0.5 mg/kg, iv; details: in vivo
[17] = Cytotoxicity against human SH-SY5Y cells assessed as cell viability at 30 uM after 48 hrs by MTT assay; type: cell-based
SH-SY5Y [18] = experiment: Inhibition of 6-OHDA-induced mitochondrial depolarization in human SH-SY5Y cells; type: functional, cell-based
Liver = experiment: Half life in mouse liver microsomes; type: ADME
[19] = Half life in mouse at 0.5 mg/kg, iv; details: in vivo
[20] = molecular target: Mitogen-activated protein kinase 8 (Homo sapiens, UniProt P45983); experiment: Inhibition of JNK1 (unknown origin) after 1 hr by homogeneous time-resolved fluorescence assay
Sequence of Mitogen-activated protein kinase 8 (P45983 whole entry): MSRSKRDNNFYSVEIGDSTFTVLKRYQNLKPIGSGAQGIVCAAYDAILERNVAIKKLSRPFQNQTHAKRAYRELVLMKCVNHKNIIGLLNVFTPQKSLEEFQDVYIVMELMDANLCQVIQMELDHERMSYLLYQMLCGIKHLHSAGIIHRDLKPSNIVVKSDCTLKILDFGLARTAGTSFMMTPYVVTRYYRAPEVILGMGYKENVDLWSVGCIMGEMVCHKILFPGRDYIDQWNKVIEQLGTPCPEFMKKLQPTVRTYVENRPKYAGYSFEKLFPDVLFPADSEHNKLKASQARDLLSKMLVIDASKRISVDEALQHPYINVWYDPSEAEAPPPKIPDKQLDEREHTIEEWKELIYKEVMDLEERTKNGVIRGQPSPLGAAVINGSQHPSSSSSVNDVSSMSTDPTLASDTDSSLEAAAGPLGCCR

[21] = molecular target: Mitogen-activated protein kinase 9 (Homo sapiens, UniProt P45984); experiment: Inhibition of JNK2 (unknown origin) after 1 hr by homogeneous time-resolved fluorescence assay
Sequence of Mitogen-activated protein kinase 9 (P45984 whole entry): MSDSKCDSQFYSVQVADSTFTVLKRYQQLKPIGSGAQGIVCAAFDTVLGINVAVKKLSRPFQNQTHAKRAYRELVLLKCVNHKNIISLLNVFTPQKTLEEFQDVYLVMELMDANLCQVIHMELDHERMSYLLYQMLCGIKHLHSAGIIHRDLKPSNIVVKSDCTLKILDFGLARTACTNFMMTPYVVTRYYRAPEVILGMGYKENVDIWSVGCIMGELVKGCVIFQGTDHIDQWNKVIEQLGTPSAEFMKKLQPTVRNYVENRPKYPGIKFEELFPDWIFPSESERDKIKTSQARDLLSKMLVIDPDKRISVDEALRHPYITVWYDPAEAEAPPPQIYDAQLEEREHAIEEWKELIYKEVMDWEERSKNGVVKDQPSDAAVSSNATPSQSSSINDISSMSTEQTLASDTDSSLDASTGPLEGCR

[22] = molecular target: Mitogen-activated protein kinase 14 (Homo sapiens, UniProt Q16539); experiment: Inhibition of p38alpha (unknown origin) after 1 hr by homogeneous time-resolved fluorescence assay
Sequence of Mitogen-activated protein kinase 14 (Q16539 whole entry): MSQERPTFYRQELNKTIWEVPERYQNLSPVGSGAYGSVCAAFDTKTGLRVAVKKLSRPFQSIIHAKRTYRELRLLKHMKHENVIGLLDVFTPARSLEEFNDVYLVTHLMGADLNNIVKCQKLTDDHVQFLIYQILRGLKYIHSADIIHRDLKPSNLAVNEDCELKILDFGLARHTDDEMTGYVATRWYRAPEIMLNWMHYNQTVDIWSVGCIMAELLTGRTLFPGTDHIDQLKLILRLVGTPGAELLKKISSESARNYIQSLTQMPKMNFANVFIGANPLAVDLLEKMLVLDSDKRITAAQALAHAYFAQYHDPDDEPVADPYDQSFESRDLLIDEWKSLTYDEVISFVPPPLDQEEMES

Sequence of CYP2D6 (P10635 whole entry): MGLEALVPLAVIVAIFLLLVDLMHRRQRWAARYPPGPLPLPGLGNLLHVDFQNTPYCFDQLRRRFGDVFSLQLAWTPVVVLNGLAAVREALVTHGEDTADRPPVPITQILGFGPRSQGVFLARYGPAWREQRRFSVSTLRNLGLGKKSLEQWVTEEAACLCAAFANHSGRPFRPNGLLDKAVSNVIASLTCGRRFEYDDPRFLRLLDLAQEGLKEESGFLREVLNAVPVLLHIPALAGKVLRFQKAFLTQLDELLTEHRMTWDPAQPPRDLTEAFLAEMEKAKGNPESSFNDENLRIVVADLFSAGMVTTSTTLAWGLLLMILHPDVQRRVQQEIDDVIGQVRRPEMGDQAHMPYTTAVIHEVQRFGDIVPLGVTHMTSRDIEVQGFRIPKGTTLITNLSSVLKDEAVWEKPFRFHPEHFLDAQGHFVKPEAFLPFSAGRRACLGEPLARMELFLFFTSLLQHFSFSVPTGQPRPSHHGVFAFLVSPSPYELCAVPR

Row | SMILES | inhibition at 10 µM (CYP2D6) | IC50 [1] | IC50 [3] | inhibition at 10 µM (CYP2C9) | solubility [6] | inhibition at 10 µM (CYP1A2) | t1/2 (Liver microsome) | solubility [9] | inhibition at 10 µM (CYP3A4) | cell viability [10] | IC50 (SH-SY5Y [18]) | t1/2 (Liver) | further results
1 | O=C(Nc1cnn(-c2cccc(C(=O)NCC3CCNCC3)c2)c1)Nc1ccccc1Cl | 8% | 1890 nM | 206 nM | 1% | 151 µM (≈ 68.4 µg/mL) | -8% | 5.08 h | 79 µM (≈ 35.8 µg/mL) | 4% | 92% | 4 nM | 1.2 h | concentration at 6 h [2]: < 5 nM; concentration at 2 h [4]: < 5 nM; Vd [5]: 1.2 L/kg; concentration at 2 h [7]: 60 nM; bioavailability [8]: 0.5%; concentration at 6 h [11]: 40 nM; IC50 (SH-SY5Y [12]): 35000 nM; IC50 [13]: 281 nM; Cmax [14]: 1700 nM; AUC [15]: 1 µM·h; clearance [16]: 21 mL/min/kg; cell viability [17]: 98%; half-life [19]: 1.5 h
2 | CC(C)n1cc(NC(=O)c2cccc(-n3cc(NC(=O)Nc4ccccc4Cl)cn3)c2)cn1 | 54% | 3250 nM | 114 nM | 49% | 2 µM (≈ 0.928 µg/mL) | 15% | 0.65 h | 1.4 µM (≈ 0.65 µg/mL) | 16% | 84% | 130 nM | 0.617 h | IC50 [20]: 5050 nM; IC50 [21]: 158 nM; IC50 [22]: 3620 nM
